The values that follow come from patent US12433876B2, “Septin inhibitors for treatment of cancers” (UNIVERSITY OF ROCHESTER, priority 2019, dated 2025).

For test [1], the system named is septin-9. As to the kind of experiment: Confocal analysis of septin-9 filament structure. The class given is cell-based.
The target in test [2] is T1, septin-2 (Homo sapiens, UniProt Q15019).
T1 sequence (Q15019 1-361): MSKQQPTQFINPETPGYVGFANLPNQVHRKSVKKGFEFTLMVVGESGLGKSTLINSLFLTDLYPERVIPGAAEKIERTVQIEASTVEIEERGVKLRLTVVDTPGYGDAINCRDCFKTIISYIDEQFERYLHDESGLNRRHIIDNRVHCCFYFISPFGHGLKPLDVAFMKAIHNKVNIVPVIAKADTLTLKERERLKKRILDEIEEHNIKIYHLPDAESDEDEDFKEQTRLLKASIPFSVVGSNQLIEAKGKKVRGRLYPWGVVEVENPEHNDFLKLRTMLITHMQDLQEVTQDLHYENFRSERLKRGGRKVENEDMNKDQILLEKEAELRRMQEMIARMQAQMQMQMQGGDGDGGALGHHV
As to the kind of experiment: Immunoblot of septin-2 expression. The format is cell-based. The note with it: 48 hours.

The test system of test [3] is septin-6. As to the kind of experiment: Immunoblot of septin-6 expression. The format is cell-based. The settings on record: 48 hours.
For test [4], the system named is PANC-1 cells. As to the kind of experiment: Live/Dead dye flow cytometry, PANC-1. The format is cell-based, human. The settings on record: PANC-1, 3 μM. How it is done:
Cell Lines, Cell Culture, and Reagents. PANC-1, BXPC-3 and CAPAN-1, SKOV-3, MCF7, MDA-MD-231 cells were obtained from ATCC and maintained in DMEM, RPMI-1640 and IMDM supplemented with 10% fetal calf serum penicillin (100 units/mL), and streptomycin (100 μg/mL) at 37° C. with 5% CO2 in a humidified incubator. JIMT-1 cells were purchased from AddexBio Inc, USA (catalog number: C0006005) and maintained in 10% FBS and antibiotic supplemented DMEM. […] The reaction was monitored using thin-layer chromatography plates with DCM-MeOH or pure ethyl acetate as eluent. Spots were monitored in a UV chamber. […] ICM scores for each compound and their poses were calculated and compared with FCF. […] Cell viability of PANC-1, BXPC-3 and CAPAN-1 pancreatic cancer cells treated with UR214-9 was measured using the Cell Titre96R Aqueous One Solution Cell Proliferation Assay (Promega Corp., catalog number: G3580) following the procedure published earlier. […] The cells were analyzed by a 305 flow cytometer and relative live and dead cell population was calculated by inputting equal number of cells in both vehicle and control group.

The subject of test [5] is BXPC-3 cells. As to the kind of experiment: Cell cycle analysis (PI, flow cytometry), BXPC-3. The class given is cell-based, human. The note with it: BXPC-3, 100 nM. How it is done:
For cell cycle analysis, BXPC-3 and PANC-1 and JIMT-1 cells (100,000/well) were seeded overnight in a 6 well dishes and allowed to adhere overnight. Media was replaced with fresh complete medium supplemented with DMSO or UR214-9 (100 nM and 3 μM) and cells were incubated for 72 hours. The media containing the drugs was removed and cells were washed twice with PBS and trypsinized gently. The cells were collected in 15 mL tubes, complete DMEM media was added to block trypsin and cells were centrifuged. The supernatants were removed and cells were gently treated with 70% cold-EtOH for 30 minutes. The fixed cells were centrifuged and the pellets obtained were collected in flow cytometry tubes and stained with preformulated PI/RNase solution (Cell Signaling Technology, catalog number: 4087s) for 30 minutes. The PI content was analyzed using a flow cytometer. Data was processed using Flowjo software.

Setting [6] is: MDA-MB-231, JIMT-1 and MCF-7 cells, 10 and 30 μM.

For `O=C(Nc1cc(Cl)nc(Cl)c1)Nc1cccc(SC(F)(F)F)c1F` [UR214-9], in test [1] (PANC-1 and JIMT-1 cells), the septin-9 filament structures result is “clear disarrangement in septin-9 filament structures”. For the same compound, in test [1] (SKOV-3, 1 μM, 48 hours), the septin-9 structure result is listed as “reorganization of septin-9”. Also, in test [2] (setting [6]), the “septin-2 protein expression levels (western blot)” value is recorded as “does not alter the protein expression levels”. For the same compound, the “septin-2 expression (immunoblot)” value in test [2] (PANC-1, 1.0 and 10.0 μM) is “unaffected”. In test [3] (setting [6]), the “septin-6 protein expression levels (western blot)” value is given as “does not alter the protein expression levels”. Besides, the “septin-6 expression (immunoblot)” value in test [3] (PANC-1, 1.0 and 10.0 μM) is “unaffected”. Further, the dead-cell population result in test [4] is “over 38%”. For the same compound, the cell cycle distribution entry in test [5] is given as “no change in cell cycle distribution”.
